Data set [1] relates to P. gingivalis DPP-7. It counts as biochemical, Porphyromonas gingivalis.
Data set [2] deals with P. gingivalis DPP-7. The experiment in a line: Kinetic analysis of p-nitroanilide substrate cleavage by DPP-7. It counts as biochemical, Porphyromonas gingivalis. Conditions: for Km / Vmax: 0.2 M HEPES, pH 7.8, 37° C.; for hydrolysis of chromogenic substrate by DPP-7: p-nitroanilide substrates. How it is done:
Kinetic Analysis—Routinely, the dipeptidylpeptidase amidolytic activity was measured with H-Ala-Phe-pNA (1 mM) in 0.2 M HEPES, pH 7.8 at 37° C. The reaction was followed for specific time intervals in a thermostated ELISA reader (SpectraMax, Applied Biosystem) and the release of p-nitroaniline was monitored at 405 nm. Other p-nitroanilide substrates were used in the same manner. For inhibition studies, the enzyme was first preincubated with an inhibitor for 15 minutes at 37° C., substrate added, and residual activity recorded. The initial steady-state velocity (v0) was determined by continuous assay for the range of substrate concentrations (100 nM to 1 mM). Km and Vmax were determined by hyperbolic regression of the kinetic data using the software package Hyper Version 1.02 obtained from Dr. J. S. Easterby (University of Liverpool, UK).
Substrate Specificity—Among several chromogenic substrates tested, only those with an aliphatic or an aromatic side chain residues in the second, penultimate position were rapidly hydrolyzed by DPP-7 (Table 2).

Where “and” joins values, the source holds several entries; their conditions need not be identical. Equal values may be shown once. Numbered stars: 1 amine (or outer) side, 2 acyl side, 3 side chain; on linkers, the order of the positions; unused ones are H or OH. Square brackets hold non-standard residues; d marks the D form. Peptide text beside a SMILES is read from it. * marks the point of attachment. Sta = CC(C)C[C@H](N)[C@@H](O)CC(=O)O; pNA = O=[N+]([O-])c1ccc(N*)cc1; Suc = O=C(CCC(=O)[*:2])[*:1]; Isovaleryl = CC(C)CC(=O)*; Cbz = O=C(OCc1ccccc1)*

On to `O=C(O)CN(CCN(CC(=O)O)CC(=O)O)CC(=O)O` [EDTA], for which, in the data set with P. gingivalis DPP-7 [1], the “% of residual activity” value was 90% and the “inactivation of / influence on DPP-7 activity (in words)” value (“inactivation of / influence” for short) is reported as “did not influence its activity”.

With `NCCCC[C@H](N)C(=O)NCC(=O)O` [Lys-Gly] (H-Lys-Gly-OH), the “% of residual activity” value with P. gingivalis DPP-7 [1] came out at 96%.

On to `O=C(O)CI` [Iodoacetic acid], for which, in the data set on P. gingivalis DPP-7 [1], the “% of residual activity” value is recorded as 102% and the “inactivation of / influence” value is “not”.

For the molecule `CC(=O)N[C@@H](CC(C)C)C(=O)N[C@@H](CC(C)C)C(=O)N[C@H](C=O)CCCNC(=N)N` [Leupeptin], the “% of residual activity” value with P. gingivalis DPP-7 [1] amounted to 107%.

`C[C@H](N)C(=O)NCC(=O)O` [Ala-Gly] (H-Ala-Gly-OH): the “% of residual activity” value in the data set on P. gingivalis DPP-7 [1] amounted to 96%.

On to `c1cnc2c(c1)ccc1cccnc12` [1,10-orthophenanthroline], for which, in the data set on P. gingivalis DPP-7 [1], the “% of residual activity” value turned out to be 98% and the “inactivation of / influence” value was “did not influence its activity”.

Turning to “α2-macroglobulin: human plasma inhibitor”, the “inactivation of / influence” value with P. gingivalis DPP-7 [1] is recorded as “did not effect enzyme activity”.

For the molecule `CC(C)CC(=O)N[C@H](C(=O)N[C@H](C(=O)N[C@@H](CC(C)C)[C@@H](O)CC(=O)N[C@@H](C)C(=O)N[C@@H](CC(C)C)[C@@H](O)CC(=O)O)C(C)C)C(C)C` [Pepstatin] (Isovaleryl-VV[Sta]A[Sta]-OH), in the data set on P. gingivalis DPP-7 [1], the “% of residual activity” value was found to be 127%.

Consider Triton X-100, for which, in the data set on P. gingivalis DPP-7 [1], the “% of residual activity” value is 144% and 103% and 94%; the “inactivation of / influence” value is “not sensitive to inactivation”.

With “α1-proteinase inhibitor: human plasma inhibitor”, the “inactivation of / influence” value in the data set on P. gingivalis DPP-7 [1] is listed as “did not effect enzyme activity”.

Turning to `CC(N)C(=O)NC(C)C(=O)Nc1ccc([N+](=O)[O-])cc1.Cl` (stereo not drawn) [H-Ala-Ala-pNA] (H-Ala-Ala-pNA; configuration not given here), in the data set on P. gingivalis DPP-7 [2], the Km (in general, the substrate concentration at which the rate is half of its maximum) stood at 313 µM and the Vmax was 129.65.

For `NCC(=O)N[C@@H](CCC(=O)O)C(=O)Nc1ccc([N+](=O)[O-])cc1` [H-Gly-Glu-pNA] (H-Gly-Glu-pNA), the “hydrolysis of chromogenic substrate by DPP-7” value (“hydrolysis” below) with P. gingivalis DPP-7 [2] is reported as “none of these was hydrolysed”.

In the case of `NC(N)=NCCC[C@H](N)C(=O)N[C@@H](Cc1ccccc1)C(=O)O` [Arg-Phe], the “% of residual activity” value in the data set with P. gingivalis DPP-7 [1] turned out to be 69%.

Consider `NC(N)=NCCC[C@H](N)C(=O)NCC(=O)O` [Arg-Gly] (H-Arg-Gly-OH), for which the “% of residual activity” value in the data set on P. gingivalis DPP-7 [1] turned out to be 84%.

Regarding `C[C@H](NC(=O)CN)C(=O)O` [Gly-Ala] (H-Gly-Ala-OH), in the data set with P. gingivalis DPP-7 [1], the “% of residual activity” value is listed as 102%.

For the molecule Aprotinin, the “% of residual activity” value with P. gingivalis DPP-7 [1] was determined as 128%.

Take N-met-Ala-Pro-Val-pNA: the “hydrolysis” value in the data set on P. gingivalis DPP-7 [2] was “none of these was hydrolysed”.

As for `NCC(=O)NC(Cc1ccccc1)C(=O)Nc1ccc([N+](=O)[O-])cc1` (stereo not drawn) [H-Gly-Phe-pNA], in the data set with P. gingivalis DPP-7 [2], the Km worked out at 256 µM and the Vmax came out at 54.54.

Turning to `C[C@H](N)C(=O)NCC(=O)N[C@@H](CCCNC(=N)N)C(=O)Nc1ccc([N+](=O)[O-])cc1` [H-Ala-Gly-Arg-pNA] (H-Ala-Gly-Arg-pNA), the “hydrolysis” value in the data set on P. gingivalis DPP-7 [2] is on record as “none of these was hydrolysed”.

For the molecule `NCCCC[C@H](NC(=O)[C@H](Cc1ccc(O)cc1)NC(=O)OCc1ccccc1)C(=O)N[C@@H](CCCN=C(N)N)C(=O)Nc1ccc([N+](=O)[O-])cc1` [Z-Tyr-Lys-Arg-pNA] (Cbz-Tyr-Lys-Arg-pNA), the “hydrolysis” value with P. gingivalis DPP-7 [2] is “none of these was hydrolysed”.

On to `C[C@H](NC(=O)CCC(=O)O)C(=O)N[C@@H](C)C(=O)N1CCC[C@H]1C(=O)N[C@@H](CCC(=O)O)C(=O)Nc1ccc([N+](=O)[O-])cc1` [N-suc-Ala-Ala-Pro-Glu-pNA] (Suc-AAPE-pNA), for which, in the data set on P. gingivalis DPP-7 [2], the “hydrolysis” value is listed as “none of these was hydrolysed”.

Take `N[C@@H](CS)C(=O)O` [Cysteine]: the “% of residual activity” value with P. gingivalis DPP-7 [1] was found to be 90%.

Take `NCCCC[C@H](NC(=O)CN)C(=O)Nc1ccc([N+](=O)[O-])cc1` [H-Gly-Lys-pNA] (H-Gly-Lys-pNA): in the data set with P. gingivalis DPP-7 [2], the “hydrolysis” value is “none of these was hydrolysed”.

As for `O=c1oc(Cl)c(Cl)c2ccccc12` [3,4-dichloroisocoumarin], in the data set with P. gingivalis DPP-7 [1], the “% of residual activity” value came out at 0% and the “inactivation of / influence” value is on record as “inactivated”.

For `CC(C)[C@H](NC(=O)[C@H](C)NC(=O)[C@H](C)NC(=O)CCC(=O)O)C(=O)N[C@@H](C)C(=O)Nc1ccc([N+](=O)[O-])cc1` [N-suc-Ala-Ala-Val-Ala-pNA] (Suc-AAVA-pNA), the “hydrolysis” value in the data set on P. gingivalis DPP-7 [2] is “none of these was hydrolysed”.

Turning to `N=C(N)NCCC[C@H](NC(=O)[C@H](CCCCN)NC(=O)OCc1ccccc1)C(=O)Nc1ccc([N+](=O)[O-])cc1` [Z-Lys-Arg-pNA] (Cbz-Lys-Arg-pNA), the “hydrolysis” value in the data set with P. gingivalis DPP-7 [2] was “none of these was hydrolysed”.

Turning to `C[C@H](N)C(=O)N[C@@H](Cc1ccccc1)C(=O)N1CCC[C@H]1C(=O)Nc1ccc([N+](=O)[O-])cc1` [H-Ala-Phe-Pro-pNA] (H-Ala-Phe-Pro-pNA), in the data set on P. gingivalis DPP-7 [2], the “hydrolysis” value was “none of these was hydrolysed”.

Regarding `CCCCCCCCCCCCOS(=O)(=O)[O-].[Na+]` [SDS], the “inactivation of / influence” value in the data set with P. gingivalis DPP-7 [1] is given as “not sensitive to inactivation”.

Consider `Cl.NCCc1ccc(S(=O)(=O)F)cc1` [PEFABLOCK, 4-(2-aminoethyl)-benzenesulfonyl fluoride hydrochloride], for which, in the data set on P. gingivalis DPP-7 [1], the “% of residual activity” value was 1% and the “inactivation of / influence” value is recorded as “inactivated”.

For `CC(C)[C@H](NC(=O)[C@H](Cc1ccccc1)NC(=O)OCc1ccccc1)C(=O)N[C@@H](CCCNC(=N)N)C(=O)Nc1ccc([N+](=O)[O-])cc1` [Z-Phe-Val-Arg-pNA] (Cbz-Phe-Val-Arg-pNA), the “hydrolysis” value with P. gingivalis DPP-7 [2] is reported as “none of these was hydrolysed”.

Turning to `CC(C)C[C@H](N)C(=O)N[C@H](C(=O)N[C@@H](CCCNC(=N)N)C(=O)Nc1ccc([N+](=O)[O-])cc1)[C@@H](C)O` [H-Leu-Thr-Arg-pNA] (H-Leu-Thr-Arg-pNA), the “hydrolysis” value in the data set on P. gingivalis DPP-7 [2] is reported as “none of these was hydrolysed”.

On to `C[C@H](N)C(=O)Nc1ccc([N+](=O)[O-])cc1` [H-Ala-pNA], for which, in the data set with P. gingivalis DPP-7 [2], the “hydrolysis” value was “none of these was hydrolysed”.

With `Br.Br.NCCCC[C@H](N)C(=O)Nc1ccc([N+](=O)[O-])cc1` [H-Lys-pNA], the “hydrolysis” value with P. gingivalis DPP-7 [2] is recorded as “none of these was hydrolysed”.

B1: α1-antichymotrypsin: human plasma inhibitor (protein)
chain: HPNSPLDEENLTQENQDRGTHVDLGLASANVDFAFSLYKQLVLKAPDKNVIFSPLSISTALAFLSLGAHNTTLTEILKGLKFNLTETSEAEIHQSFQHLLRTLNQSSDELQLSMGNAMFVKEQLSLLDRFTEDAKRLYGSEAFATDFQDSAAAKKLINDYVKNGTRGKITDLIKDLDSQTMMVLVNYIFFKAKWEMPFDPQDTHQSRFYLSKKKWVMVPMMSLHHLTIPYFRDEELSCTVVELKYTGNASALFILPDQDKMEEVEAMLLPETLKRWRDSLEFREIGELYLPKFSISRDYNLNDILLQLGIEEAFTSKADLSGITGARNLAVSQVVHKAVLDVFEEGTEASAATAVKITLLSALVETRTIVRFNRPFLMIIVPTDTQNIFFMSKVTNPKQA
Take B1: the “inactivation of / influence” value with P. gingivalis DPP-7 [1] was “did not effect enzyme activity”.

The record behind these values is patent publication US6864363B2 (priority 2000, dated 2005).
